Measurements reported in ChEMBL document CHEMBL4431395, “Cellular Activity of New Small Molecule Protein Arginine Deiminase 3 (PAD3) Inhibitors” (ACS Med Chem Lett, 2016).

target: Protein-arginine deiminase type-2 (Homo sapiens, UniProt Q9Y2J8); test: Inhibition of recombinant human 6His-tagged PAD2 assessed as reduction in residual activity preincubated for 15 mins followed by addition of N-benzoylated arginine ethyl ester hydrochloride measured after 15 mins by colder assay
Sequence (Q9Y2J8 whole entry): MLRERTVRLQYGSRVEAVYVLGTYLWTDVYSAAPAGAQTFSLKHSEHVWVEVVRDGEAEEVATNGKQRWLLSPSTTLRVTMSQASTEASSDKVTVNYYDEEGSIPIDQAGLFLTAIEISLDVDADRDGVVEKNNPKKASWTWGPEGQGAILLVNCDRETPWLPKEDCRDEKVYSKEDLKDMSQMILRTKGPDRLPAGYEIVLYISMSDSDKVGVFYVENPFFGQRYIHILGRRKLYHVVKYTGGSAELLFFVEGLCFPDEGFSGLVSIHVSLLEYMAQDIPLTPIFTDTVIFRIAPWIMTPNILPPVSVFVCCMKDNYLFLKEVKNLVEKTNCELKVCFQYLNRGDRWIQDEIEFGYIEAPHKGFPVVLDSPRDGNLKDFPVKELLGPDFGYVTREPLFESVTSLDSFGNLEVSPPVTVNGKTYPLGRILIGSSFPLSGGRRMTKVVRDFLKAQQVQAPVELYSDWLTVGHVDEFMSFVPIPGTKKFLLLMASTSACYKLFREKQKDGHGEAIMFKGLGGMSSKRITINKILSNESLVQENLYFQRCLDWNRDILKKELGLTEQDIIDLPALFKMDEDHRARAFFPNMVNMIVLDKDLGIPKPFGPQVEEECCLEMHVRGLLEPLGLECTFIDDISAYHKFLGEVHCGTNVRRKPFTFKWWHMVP

Row | IC50 | SMILES
1 | 153 µM | N=C(CCl)NCC#CC(=O)NCc1cccc(-c2ccccc2)c1
2 | 140 µM | N=C(CCl)NCCNC(=O)NCc1cccc(-c2ccccc2)c1
3 | 110 µM | N=C(CCl)NCCCc1cn(-c2cccc(-c3ccccc3)c2)nn1
4 | 151 µM | N=C(CCl)NCCOC(=O)NCc1cccc(-c2ccccc2)c1

target: T1, Protein-arginine deiminase type-1 (Homo sapiens, UniProt Q9ULC6); test: Inhibition of recombinant human 6His-tagged PAD1 assessed as reduction in residual activity preincubated for 15 mins followed by addition of N-benzoylated arginine ethyl ester hydrochloride measured after 15 mins by colder assay
T1 sequence (Q9ULC6 whole entry): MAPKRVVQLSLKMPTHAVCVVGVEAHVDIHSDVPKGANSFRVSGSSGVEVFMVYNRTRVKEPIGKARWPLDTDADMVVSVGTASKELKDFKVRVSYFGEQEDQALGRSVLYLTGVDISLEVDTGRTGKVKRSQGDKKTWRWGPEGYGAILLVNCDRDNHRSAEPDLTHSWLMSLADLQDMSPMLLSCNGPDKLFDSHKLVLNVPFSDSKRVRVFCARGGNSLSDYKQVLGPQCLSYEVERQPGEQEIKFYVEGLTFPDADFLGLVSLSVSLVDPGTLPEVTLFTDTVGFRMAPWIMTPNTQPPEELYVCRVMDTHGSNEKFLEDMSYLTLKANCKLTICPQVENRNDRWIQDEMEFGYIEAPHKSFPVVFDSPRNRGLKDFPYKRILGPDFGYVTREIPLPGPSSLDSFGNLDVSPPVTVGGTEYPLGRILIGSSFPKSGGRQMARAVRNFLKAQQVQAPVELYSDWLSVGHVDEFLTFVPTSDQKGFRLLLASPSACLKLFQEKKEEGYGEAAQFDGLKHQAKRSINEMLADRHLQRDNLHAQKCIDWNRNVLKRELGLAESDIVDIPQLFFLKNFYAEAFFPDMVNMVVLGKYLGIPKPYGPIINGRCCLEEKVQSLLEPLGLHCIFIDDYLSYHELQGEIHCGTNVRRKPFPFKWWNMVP

Row | IC50 | SMILES
5 | 408 µM | N=C(CCl)NCC#CC(=O)NCc1cccc(-c2ccccc2)c1
6 | 294 µM | N=C(CCl)NCCCc1cn(-c2cccc(-c3ccccc3)c2)nn1
7 | 161 µM | N=C(CCl)NCCCc1nc(Cl)c(-c2cccc(-c3ccccc3)c2)[nH]1
8 | > 500 µM | N=C(CCl)NCCOC(=O)NCc1cccc(-c2ccccc2)c1
9 | 125 µM | N=C(CCl)NC/C=C/C(=O)NCc1cccc(-c2ccccc2)c1

target: Protein-arginine deiminase type-4 (Homo sapiens, UniProt Q9UM07); test: Inhibition of recombinant human GST-tagged PAD4 expressed in Escherichia coli BL21-DE3 pLysS assessed as reduction in reduction in residual activity preincubated for 15 mins followed by addition of N-benzoylated arginine ethyl ester hydrochloride measured after 15 mins by colder assay
Sequence (Q9UM07 whole entry): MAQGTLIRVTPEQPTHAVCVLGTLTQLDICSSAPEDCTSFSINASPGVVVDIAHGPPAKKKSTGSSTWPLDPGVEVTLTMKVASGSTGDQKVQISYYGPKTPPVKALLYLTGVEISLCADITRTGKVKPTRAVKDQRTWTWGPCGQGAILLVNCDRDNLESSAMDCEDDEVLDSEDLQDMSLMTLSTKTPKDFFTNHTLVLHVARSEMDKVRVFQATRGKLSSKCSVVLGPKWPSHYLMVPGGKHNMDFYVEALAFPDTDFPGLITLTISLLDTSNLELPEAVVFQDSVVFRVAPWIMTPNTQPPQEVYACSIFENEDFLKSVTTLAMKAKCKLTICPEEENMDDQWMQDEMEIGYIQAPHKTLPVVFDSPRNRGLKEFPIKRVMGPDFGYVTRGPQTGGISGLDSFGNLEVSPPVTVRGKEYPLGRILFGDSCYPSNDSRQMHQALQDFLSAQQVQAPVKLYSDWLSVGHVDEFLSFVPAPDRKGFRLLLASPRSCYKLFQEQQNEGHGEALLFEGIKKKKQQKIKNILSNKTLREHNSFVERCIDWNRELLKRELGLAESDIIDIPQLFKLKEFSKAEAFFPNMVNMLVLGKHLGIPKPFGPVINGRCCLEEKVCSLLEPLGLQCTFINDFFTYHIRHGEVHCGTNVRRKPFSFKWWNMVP

Row | IC50 | SMILES
10 | 129 µM | N=C(CCl)NCCNC(=O)NCc1cccc(-c2ccccc2)c1
